Source: patent publication US4956294A, “Culture of Streptoverticillium synroense for producing an antibacterial” (Merck & Co., Inc., priority 1989, dated 1990)
Values after ≈ are worked out from the molar mass of the structure shown.

Columns and labels:
[1] = system: Peptostreptococcus anaerobius 3282; assay: Anaerobic agar dilution, Wilkens-Chalgren agar; format: cell-based; conditions: Peptostreptococcus anaerobius, 3282; anaerobic, inoculum 10^6 cfu/spot, 35° C., 48 hours; read-out: MIC
[2] = system: S. aureus Gm^r Meth^r 4310; assay: Agar dilution, trypticase soy agar; conditions: Staphylococcus aureus, 20 h
E. coli TEM 2+ DC2 4352 = assay: Agar dilution, trypticase soy agar; conditions: Escherichia coli, 20 h
[3] = system: Veillonella alcalescens 1952; assay: Anaerobic agar dilution, Wilkens-Chalgren agar; format: cell-based; conditions: Veillonella parvula, 1952; anaerobic, inoculum 10^6 cfu/spot, 35° C., 48 hours; read-out: MIC
E. coli 2891 [4] = assay: Agar dilution, trypticase soy agar; conditions: Escherichia coli, 2891, 20 h
[5] = system: Propionibacterium acnes 2249; assay: Anaerobic agar dilution, Wilkens-Chalgren agar; format: cell-based; conditions: Cutibacterium acnes, 2249; anaerobic, inoculum 10^6 cfu/spot, 35° C., 48 hours; read-out: MIC
[6] = system: C. difficile Clind^r 4273; assay: Anaerobic agar dilution, Wilkens-Chalgren agar; format: cell-based; conditions: Clostridioides difficile; anaerobic, inoculum 10^6 cfu/spot, 35° C., 48 hours; read-out: MIC
Ent. cloacae P99- 2647 [7] = assay: Agar dilution, trypticase soy agar; conditions: Enterobacter cloacae, P992647, 20 h
Prot. morganii Sm^r 2833 = assay: Agar dilution, trypticase soy agar; conditions: Morganella morganii, 20 h
C. perfringens 2237 = assay: microbe, parasite or virus in culture; format: cell-based; conditions: Clostridium perfringens, 2237, 48 h
C. ramosum 4272 = assay: Anaerobic agar dilution, Wilkens-Chalgren agar; format: cell-based; conditions: Thomasclavelia ramosa, 4272; anaerobic, inoculum 10^6 cfu/spot, 35° C., 48 hours; read-out: MIC
[8] = system: Prot. mirabilis Gm^r 2830; assay: Agar dilution, trypticase soy agar; conditions: Proteus mirabilis, 20 h
Ser. marcescens 2840 [9] = assay: Agar dilution, trypticase soy agar; conditions: Serratia marcescens, 2840, 20 h
E. coli TEM 2+ 4351 [10] = assay: Agar dilution, trypticase soy agar; conditions: Escherichia coli, 20 h
B. asaccharolyticus 4271 = assay: Anaerobic agar dilution, Wilkens-Chalgren agar; format: cell-based; conditions: Porphyromonas asaccharolytica, 4271; anaerobic, inoculum 10^6 cfu/spot, 35° C., 48 hours; read-out: MIC
C. perfringens 3509 = assay: microbe, parasite or virus in culture; format: cell-based; conditions: Clostridium perfringens, 3509, 48 h
B. fragilis Pen^r 3214 = assay: Anaerobic agar dilution, Wilkens-Chalgren agar; format: cell-based; conditions: Bacteroides fragilis; anaerobic, inoculum 10^6 cfu/spot, 35° C., 48 hours; read-out: MIC
C. perfringens 3513 = assay: microbe, parasite or virus in culture; format: cell-based; conditions: Clostridium perfringens, 3513, 48 h
C. perfringens 3512 = assay: microbe, parasite or virus in culture; format: cell-based; conditions: Clostridium perfringens, 3512, 48 h
K. pneumoniae 4005 = assay: Agar dilution, trypticase soy agar; conditions: Klebsiella pneumoniae, 4005, 20 h
B. ovatus Pen^r 3248 = assay: Anaerobic agar dilution, Wilkens-Chalgren agar; format: cell-based; conditions: Bacteroides ovatus; anaerobic, inoculum 10^6 cfu/spot, 35° C., 48 hours; read-out: MIC
C. difficile Fox^r 4380 = assay: Anaerobic agar dilution, Wilkens-Chalgren agar; format: cell-based; conditions: Clostridioides difficile; anaerobic, inoculum 10^6 cfu/spot, 35° C., 48 hours; read-out: MIC
Prot. vulgaris 2829 [11] = assay: Agar dilution, trypticase soy agar; conditions: Proteus vulgaris, 2829, 20 h
C. perfringens 3510 = assay: microbe, parasite or virus in culture; format: cell-based; conditions: Clostridium perfringens, 3510, 48 h
[12] = system: Fusobacterium mortiferum Fox^r 3345; assay: Anaerobic agar dilution, Wilkens-Chalgren agar; format: cell-based; conditions: anaerobic, inoculum 10^6 cfu/spot, 35° C., 48 hours, read-out: MIC
[13] = system: B. thetalotamicron Clind^r, NCCLS control strain 4420; assay: Anaerobic agar dilution, Wilkens-Chalgren agar; format: cell-based; conditions: anaerobic, inoculum 10^6 cfu/spot, 35° C., 48 hours; read-out: MIC
[14] = system: Bacteroides fragilis Met^r . Pen^r 4324; assay: Anaerobic agar dilution, Wilkens-Chalgren agar; format: cell-based; conditions: anaerobic, inoculum 10^6 cfu/spot, 35° C., 48 hours, read-out: MIC
[15] = system: B. fragilis Clind^r, Fox^r, Tet^r 4360; assay: Anaerobic agar dilution, Wilkens-Chalgren agar; format: cell-based; conditions: Bacteroides fragilis; anaerobic, inoculum 10^6 cfu/spot, 35° C., 48 hours; read-out: MIC
Ent. cloacae P99+ 2646 = assay: Agar dilution, trypticase soy agar; conditions: Enterobacter cloacae, 20 h
[16] = system: B. thetalotamicron Clind^r 4362; assay: Anaerobic agar dilution, Wilkens-Chalgren agar; format: cell-based; conditions: anaerobic, inoculum 10^6 cfu/spot, 35° C., 48 hours; read-out: MIC
[17] = system: Actinomyces naeslundii 4053; assay: Anaerobic agar dilution, Wilkens-Chalgren agar; format: cell-based; conditions: Actinomyces naeslundii, 4053; anaerobic, inoculum 10^6 cfu/spot, 35° C., 48 hours; read-out: MIC
[18] = system: Bifidobacterium dentium Fox^r 4427; assay: Anaerobic agar dilution, Wilkens-Chalgren agar; format: cell-based; conditions: 48 h
[19] = system: B. distasonis Pen^r, Fox^r, Clind^r 4361; assay: Anaerobic agar dilution, Wilkens-Chalgren agar; format: cell-based; conditions: Parabacteroides distasonis; anaerobic, inoculum 10^6 cfu/spot, 35° C., 48 hours; read-out: MIC
[20] = system: B. fragilis NCCLS control strain 4419; assay: Anaerobic agar dilution, Wilkens-Chalgren agar; format: cell-based; conditions: Bacteroides fragilis; anaerobic, inoculum 10^6 cfu/spot, 35° C., 48 hours; read-out: MIC
K. pneumoniae K1+ 4354 = assay: Agar dilution, trypticase soy agar; conditions: Klebsiella pneumoniae, 20 h
C. perfringens 3508 = assay: microbe, parasite or virus in culture; format: cell-based; conditions: Clostridium perfringens, 3508, 48 h
Sal. typhimurium 3860 [21] = assay: Agar dilution, trypticase soy agar; conditions: Salmonella enterica, 20 h
Eubacterium limosum 3344 = assay: Anaerobic agar dilution, Wilkens-Chalgren agar; format: cell-based; conditions: inoculum 10^6 cfu/spot, 35° C., 48 hours
Experimental: (a) Wilkens-Chalgren agar was used instead of antagonist-free medium (Roche);
(b) The inoculum/spot was about 10^6 instead of about 10^4 ;
(c) The incubation period was for 48 hours, not 24 hours; and
(d) Incubations were performed under anaerobic conditions.

C. perfringens 3511 = assay: microbe, parasite or virus in culture; format: cell-based; conditions: Clostridium perfringens, 3511, 48 h
[22] = system: Clostridium perfringens NCCLS control strain 4418; assay: microbe, parasite or virus in culture; format: cell-based; conditions: 48 h
[23] = system: Ps. aeruginosa RPL11+ 3350; assay: Agar dilution, trypticase soy agar; conditions: Pseudomonas aeruginosa, 20 h
[24] = system: B. distasonis Pen^r, Fox^r 3445; assay: Anaerobic agar dilution, Wilkens-Chalgren agar; format: cell-based; conditions: Parabacteroides distasonis, 48 h
Ent. cloacae P99- 2647 [25] = assay: Agar dilution, antagonist-free medium; conditions: Enterobacter cloacae, P992647, 20 h
E. coli 2891 [26] = assay: Agar dilution, antagonist-free medium; conditions: Escherichia coli, 2891, 20 h
Ps. aeruginosa 4279 = assay: Agar dilution, antagonist-free medium; conditions: Pseudomonas aeruginosa, 4279, 20 h
Staph. aureus 2865 = assay: Agar dilution, antagonist-free medium; conditions: Staphylococcus aureus, 2865, 20 h
Sal. typhimurium 3860 [27] = assay: Agar dilution, antagonist-free medium; conditions: Salmonella enterica, 20 h
Ser. marcescens 2840 [28] = assay: Agar dilution, antagonist-free medium; conditions: Serratia marcescens, 2840, 20 h
E. coli TEM 2+ 4351 [29] = assay: Agar dilution, antagonist-free medium; conditions: Escherichia coli, 20 h
E. coli DC2 4353 = assay: Agar dilution, antagonist-free medium; conditions: Escherichia coli, DC24353, 20 h
Prot. vulgaris 2829 [30] = assay: Agar dilution, antagonist-free medium; conditions: Proteus vulgaris, 2829, 20 h

Compound `CO[C@@]1(NC(=O)Cc2cccs2)C(=O)N2C(C(=O)O)=C(COC(N)=O)CS[C@@H]21` [CEFOXITIN, Cefoxitin, reference compound] has an MIC [1] of 1 µg/mL (≈ 2.34 µM), an MIC [2] greater than 128 µg/mL and an MIC (E. coli TEM 2+ DC2 4352) of 2 µg/mL (≈ 4.68 µM). The MIC [3] was 1 µg/mL (≈ 2.34 µM), the MIC (E. coli 2891 [4]) was 64 µg/mL (≈ 150 µM) and the MIC [5] was 0.06 µg/mL (≈ 0.14 µM). The MIC [6] was 4 µg/mL (≈ 9.36 µM), the MIC (Ent. cloacae P99- 2647 [7]) was 8 µg/mL (≈ 18.7 µM) and the MIC (Prot. morganii Sm^r 2833) was 8 µg/mL (≈ 18.7 µM). It also gave an MIC (C. perfringens 2237) of 2 µg/mL (≈ 4.68 µM), an MIC (C. ramosum 4272) of 32 µg/mL (≈ 74.9 µM) and an MIC [8] of 4 µg/mL (≈ 9.36 µM). The MIC (Ser. marcescens 2840 [9]) was 32 µg/mL (≈ 74.9 µM), the MIC (E. coli TEM 2+ 4351 [10]) was 4 µg/mL (≈ 9.36 µM) and the MIC (B. asaccharolyticus 4271) was 0.5 µg/mL (≈ 1.17 µM). It also gave an MIC (C. perfringens 3509) of 0.25 µg/mL (≈ 0.585 µM), an MIC (B. fragilis Pen^r 3214) of 16 µg/mL (≈ 37.4 µM) and an MIC (C. perfringens 3513) of 2 µg/mL (≈ 4.68 µM). For the same compound, the MIC (C. perfringens 3512) was 1 µg/mL (≈ 2.34 µM), the MIC (K. pneumoniae 4005) was 2 µg/mL (≈ 4.68 µM) and the MIC (B. ovatus Pen^r 3248) was 32 µg/mL (≈ 74.9 µM). It also gave an MIC (C. difficile Fox^r 4380) of 64 µg/mL (≈ 150 µM), an MIC (Prot. vulgaris 2829 [11]) of 4 µg/mL (≈ 9.36 µM) and an MIC (C. perfringens 3510) of 0.5 µg/mL (≈ 1.17 µM). It also gave an MIC [12] of 32 µg/mL (≈ 74.9 µM), an MIC [13] of 32 µg/mL (≈ 74.9 µM) and an MIC [14] of 4 µg/mL (≈ 9.36 µM). It also gave an MIC [15] of 32 µg/mL (≈ 74.9 µM), an MIC (Ent. cloacae P99+ 2646) of 128 µg/mL (≈ 299 µM) and an MIC [16] of 32 µg/mL (≈ 74.9 µM). The MIC [17] was 0.015 µg/mL (≈ 0.0351 µM), the MIC [18] was 64 µg/mL (≈ 150 µM) and the MIC [19] was 32 µg/mL (≈ 74.9 µM). It also gave an MIC [20] of 8 µg/mL (≈ 18.7 µM), an MIC (K. pneumoniae K1+ 4354) of 4 µg/mL (≈ 9.36 µM) and an MIC (C. perfringens 3508) of 0.25 µg/mL (≈ 0.585 µM). It also gave an MIC (Sal. typhimurium 3860 [21]) of 4 µg/mL (≈ 9.36 µM), an MIC (Eubacterium limosum 3344) of 1 µg/mL (≈ 2.34 µM) and an MIC (C. perfringens 3511) of 1 µg/mL (≈ 2.34 µM). It also gave an MIC [22] of 1 µg/mL (≈ 2.34 µM), an MIC [23] greater than 128 µg/mL and an MIC [24] of 128 µg/mL (≈ 299 µM).
For `N[C@@H]1CONC1=O` [D-Cycloserine, D-cycloserine, reference compound], the MIC (Ent. cloacae P99- 2647 [25]) was 4 µg/mL (≈ 39.2 µM), the MIC (E. coli 2891 [26]) was 4 µg/mL (≈ 39.2 µM) and the MIC (Ps. aeruginosa 4279) was 16 µg/mL (≈ 157 µM). The MIC (Staph. aureus 2865) was 2 µg/mL (≈ 19.6 µM), the MIC (Sal. typhimurium 3860 [27]) was 4 µg/mL (≈ 39.2 µM) and the MIC (Ser. marcescens 2840 [28]) was greater than 256 µg/mL. It also gave an MIC (E. coli TEM 2+ 4351 [29]) of 2 µg/mL (≈ 19.6 µM), an MIC (E. coli DC2 4353) of 8 µg/mL (≈ 78.4 µM) and an MIC (Prot. vulgaris 2829 [30]) of 32 µg/mL (≈ 313 µM).
